Reference: the NIST ThermoML archive (doi:10.1016/j.jct.2015.12.028)
Numbers after ± are expanded uncertainties.

Conditions: Liquid, light scattering

CCCCCC(=O)OCC [ethyl hexanoate]
Conditions | speed of sound [m/s]
291.92 K, 7170 kPa | 1273.2 ± 13
292.04 K, 8640 kPa | 1284 ± 13
292.14 K, 10010 kPa | 1290.3 ± 13
293.41 K, 5690 kPa | 1255 ± 13
293.44 K, 4180 kPa | 1247.7 ± 13
294.64 K, 100 kPa | 1224.2 ± 12
294.64 K, 1100 kPa | 1230.1 ± 12
294.84 K, 2620 kPa | 1239 ± 12
301.5 K, 2670 kPa | 1205.7 ± 12
301.55 K, 1070 kPa | 1195.5 ± 12
301.56 K, 4130 kPa | 1214.4 ± 12
301.58 K, 7090 kPa | 1236.9 ± 12
301.6 K, 5650 kPa | 1225.7 ± 12
301.63 K, 8670 kPa | 1245.9 ± 13
301.73 K, 10030 kPa | 1258.6 ± 13
302.55 K, 100 kPa | 1189.8 ± 12
313.14 K, 9980 kPa | 1220.5 ± 12
313.24 K, 4030 kPa | 1185 ± 12
313.24 K, 8510 kPa | 1215.6 ± 12
313.25 K, 7000 kPa | 1205.4 ± 12
313.26 K, 5550 kPa | 1196.2 ± 12
313.28 K, 2510 kPa | 1175.2 ± 12
313.3 K, 100 kPa | 1155.3 ± 12
313.3 K, 1020 kPa | 1160.8 ± 12
323.18 K, 10000 kPa | 1187.7 ± 12
323.28 K, 8470 kPa | 1179.1 ± 12
323.31 K, 2480 kPa | 1142.4 ± 11
323.31 K, 4010 kPa | 1149.9 ± 12
323.33 K, 6950 kPa | 1170 ± 12
323.35 K, 5480 kPa | 1162 ± 12
323.36 K, 100 kPa | 1120.8 ± 11
323.36 K, 1020 kPa | 1128.5 ± 11
332.94 K, 8560 kPa | 1145.7 ± 12
332.97 K, 6950 kPa | 1135.6 ± 11
332.97 K, 10050 kPa | 1156.4 ± 12
332.99 K, 100 kPa | 1086.3 ± 11
332.99 K, 1060 kPa | 1090.1 ± 11
333.01 K, 2560 kPa | 1105.9 ± 11
333.04 K, 5580 kPa | 1125.1 ± 11
333.07 K, 4030 kPa | 1115.9 ± 11
342.65 K, 2510 kPa | 1072.2 ± 11
342.67 K, 100 kPa | 1051.7 ± 11
342.67 K, 1000 kPa | 1054.8 ± 11
342.69 K, 3940 kPa | 1082.2 ± 11
342.71 K, 5500 kPa | 1094.5 ± 11
342.72 K, 8500 kPa | 1109.7 ± 11
342.74 K, 7030 kPa | 1099.1 ± 11
342.82 K, 9990 kPa | 1124.8 ± 11
352.33 K, 100 kPa | 1017.1 ± 10
352.33 K, 1100 kPa | 1023 ± 10
352.33 K, 2540 kPa | 1038.4 ± 10
352.35 K, 4000 kPa | 1050.4 ± 11
352.41 K, 5530 kPa | 1061 ± 11
352.42 K, 7020 kPa | 1068.2 ± 11
352.43 K, 8490 kPa | 1080.4 ± 11
352.73 K, 10060 kPa | 1093.6 ± 11
362.56 K, 100 kPa | 982.46 ± 9.9
362.56 K, 1000 kPa | 987.04 ± 9.9
362.56 K, 4010 kPa | 1015.1 ± 10
362.58 K, 8530 kPa | 1045.7 ± 11
362.6 K, 7060 kPa | 1033.4 ± 10
362.62 K, 5540 kPa | 1026 ± 10
362.64 K, 2530 kPa | 1000.9 ± 10
362.68 K, 10100 kPa | 1061.2 ± 11
372.53 K, 2500 kPa | 968.37 ± 9.7
372.54 K, 100 kPa | 947.78 ± 9.5
372.54 K, 1040 kPa | 952.55 ± 9.6
372.55 K, 7020 kPa | 1007.7 ± 10
372.56 K, 8530 kPa | 1016.3 ± 10
372.57 K, 5560 kPa | 998.43 ± 10
372.59 K, 4050 kPa | 985.39 ± 9.9
372.86 K, 9900 kPa | 1029.5 ± 10
382.71 K, 8540 kPa | 980 ± 9.9
382.73 K, 7020 kPa | 971.25 ± 9.8
382.74 K, 100 kPa | 913.07 ± 9.2
382.74 K, 1000 kPa | 922.72 ± 9.3
382.74 K, 5540 kPa | 962.72 ± 9.7
382.75 K, 4010 kPa | 952.21 ± 9.6
382.76 K, 2560 kPa | 934.6 ± 9.4
382.91 K, 9900 kPa | 997.44 ± 10
392.4 K, 5520 kPa | 933.47 ± 9.4
392.41 K, 7010 kPa | 940.67 ± 9.5
392.42 K, 8480 kPa | 949.6 ± 9.6
392.47 K, 100 kPa | 878.33 ± 8.8
392.47 K, 1030 kPa | 884.09 ± 8.9
392.47 K, 4000 kPa | 919.08 ± 9.2
392.51 K, 2490 kPa | 902.62 ± 9.1
392.92 K, 9950 kPa | 966.97 ± 9.8
402 K, 6970 kPa | 908.77 ± 9.2
402.03 K, 100 kPa | 843.55 ± 8.5
402.03 K, 1040 kPa | 854.91 ± 8.6
402.06 K, 2470 kPa | 868.02 ± 8.7
402.06 K, 4030 kPa | 883.34 ± 8.9
402.08 K, 8510 kPa | 919.03 ± 9.3
402.1 K, 5510 kPa | 899.47 ± 9.1
402.68 K, 10070 kPa | 936.79 ± 9.4
412.72 K, 100 kPa | 808.74 ± 8.2
412.72 K, 1040 kPa | 815.66 ± 8.2
412.8 K, 2570 kPa | 833.03 ± 8.4
412.88 K, 5600 kPa | 865.88 ± 8.7
412.88 K, 7020 kPa | 871.35 ± 8.8
412.89 K, 8470 kPa | 886.33 ± 8.9
412.91 K, 4020 kPa | 848.61 ± 8.6
412.99 K, 10030 kPa | 903.23 ± 9.1
423.69 K, 9950 kPa | 868.97 ± 8.8
423.99 K, 8470 kPa | 850.59 ± 8.6
424.01 K, 6980 kPa | 840.66 ± 8.5
424.04 K, 5530 kPa | 826.28 ± 8.3
424.11 K, 2540 kPa | 796.64 ± 8
424.11 K, 4010 kPa | 811.39 ± 8.2
424.14 K, 100 kPa | 773.9 ± 7.8
424.14 K, 1010 kPa | 774.99 ± 7.8
432.74 K, 8510 kPa | 826.01 ± 8.3
432.77 K, 7030 kPa | 813.37 ± 8.2
432.78 K, 5380 kPa | 798.35 ± 8.1
432.84 K, 9890 kPa | 842.12 ± 8.5
432.92 K, 3990 kPa | 780.75 ± 7.9
433.17 K, 100 kPa | 739.02 ± 7.5
433.17 K, 1030 kPa | 746.97 ± 7.5
433.17 K, 2510 kPa | 762.64 ± 7.7
442.85 K, 5610 kPa | 765.41 ± 7.7
442.88 K, 4100 kPa | 748.87 ± 7.6
442.9 K, 930 kPa | 715.97 ± 7.2
442.9 K, 2480 kPa | 729.4 ± 7.4
442.91 K, 6990 kPa | 777.33 ± 7.9
442.92 K, 8480 kPa | 791.24 ± 8
452.58 K, 5540 kPa | 735.89 ± 7.5
452.61 K, 7110 kPa | 747.91 ± 7.6
452.63 K, 8380 kPa | 764.36 ± 7.7
452.65 K, 4080 kPa | 717.86 ± 7.3
452.91 K, 2540 kPa | 695.59 ± 7
452.92 K, 1040 kPa | 677.79 ± 6.9
452.93 K, 10000 kPa | 781.61 ± 7.9
462.7 K, 7080 kPa | 715.1 ± 7.2
462.71 K, 4130 kPa | 682.75 ± 6.9
462.71 K, 8400 kPa | 730.25 ± 7.4
462.72 K, 5530 kPa | 700.28 ± 7.1
462.73 K, 2510 kPa | 660.98 ± 6.7
462.91 K, 10060 kPa | 751.22 ± 7.6
462.97 K, 960 kPa | 644.49 ± 6.5
471.93 K, 7050 kPa | 686.17 ± 7
471.94 K, 5520 kPa | 670.94 ± 6.8
471.95 K, 8260 kPa | 703.27 ± 7.1
472.03 K, 3960 kPa | 653.08 ± 6.6
472.05 K, 10050 kPa | 723.5 ± 7.3
472.29 K, 2600 kPa | 630.72 ± 6.4
472.41 K, 950 kPa | 612.74 ± 6.2

Conditions | speed of sound [m/s]
294.37 K | 1220.1 ± 12
301.55 K | 1191 ± 12
313.34 K | 1152.7 ± 12
324.26 K | 1115.1 ± 11
333.16 K | 1077.6 ± 11
343.2 K | 1046.1 ± 10
353.08 K | 1010 ± 10
363.12 K | 975 ± 9.8
373.14 K | 942 ± 9.5
383.76 K | 905.4 ± 9.1
393.3 K | 870.1 ± 8.8
402.64 K | 834.9 ± 8.4
413.59 K | 800.8 ± 8.1
423.96 K | 764 ± 7.7
433.99 K | 730.3 ± 7.4
443.55 K | 697.6 ± 7
452.9 K | 661 ± 6.7
463.1 K | 628.8 ± 6.4
473.82 K | 592.4 ± 6
